Experimental data taken from BigSolDB 2.1.

OC(Cn1cncn1)(Cn1cncn1)c1ccc(F)cc1F
solubility (mole fraction)
Conditions | 293.15 K | 298.15 K | 303.15 K | 308.15 K | 313.15 K | 318.15 K | 323.15 K
in ethanol | 0.0105 | 0.0123 | 0.014 | 0.0157 | 0.0183 | 0.023 | 0.0282
in water | 7.76e-05 | 7.99e-05 | 8.28e-05 | 8.58e-05 | 9.06e-05 | 9.59e-05 | 0.000104
